Experimental data published in patent publication EP2226323A1, “New tetrahydropyrazolo[3,4-c]isoquinolin-5-amine derivatives” (Almirall, S.A., priority 2009, dated 2010).

biological target: recombinant PDE4 enzyme; assay: PDE4 assay: [3H] cAMP Scintillation Proximity Assay (SPA) of phosphodiesterase activity; type: biochemical; settings: yeast extract of recombinant PDE4 enzyme; 30 nM [3H] cAMP; 1 hr at room temperature; pH 7.5
Experimental: Measurement of Phosphodiesterase Activity was done using a [3H] cAMP Scintillation Proximity Assay (SPA) (GE Healthcare). Compounds to be tested were dissolved in DMSO at a stock concentration of 1 mM and serial dilutions were prepared in 50% DMSO to determine IC50s. The reactions were conducted in 96-well plates (Corning, Ref.3604) at room temperature, in 0.1 ml of reaction buffer containing (final concentrations): 50 mM Tris-HCl, pH 7.5, 8.3 mM MgCl2, 1.7 mM EGTA, 30 nM [3H] cAMP (approximately 150000 dpm/well) with or without the inhibitors. The reaction was initiated by adding yeast extract of recombinant PDE4 enzyme. Plates were shaken for 1 hr at room temperature and the incubation was terminated by adding 50 µl (0.5 mg /well) of SPA yttrium silicate beads (RPNQ 0150; GE Healthcare) in the presence of zinc sulfate. Plates were stored overnight in the dark and read on a TRILUX microtiter plate reader (Perkin Elmer).

Row | Molecule | IC50
1 | CC1(C)CCc2c(Nc3c(Cl)cncc3Cl)nc3c(c(O)nn3Cc3cccc(C(N)=O)c3)c2C1 [Example 10, 3-((5-(3,5-Dichloropyridin-4-ylamino)-1-hydroxy-8,8-dimethyl-6,7,8,9-tetrahydro-3H-pyrazolo[3,4-c]isoquinolin-3-yl)methyl)benzamide] | 2.3 nM
2 | CC1(C)CCc2c(Nc3c(Cl)cncc3Cl)nc3c(c(O)nn3CC(N)=O)c2C1 [Example 9, 2-(5-(3,5-Dichloropyridin-4-ylamino)-1-hydroxy-8,8-dimethyl-6,7,8,9-tetrahydro-3H-pyrazolo[3,4-c]isoquinolin-3-yl)acetamide] | 18.8 nM
3 | CC1(C)CCc2c(Nc3c(Cl)cncc3Cl)nc3c(c(O)nn3CCCN3CCOCC3)c2C1 [Example 15, 5-(3,5-Dichloropyridin-4-ylamino)-8,8-dimethyl-3-(3-morpholinopropyl)-6,7,8,9-tetrahydro-3H-pyrazolo[3,4-c]isoquinolin-1-ol] | 6.14 nM
4 | CC1(C)CCc2c(Nc3c(Cl)cncc3Cl)nc3c(c(O)nn3Cc3ccc(C(=O)O)cc3)c2C1 [Example 12, 4-((5-(3,5-Dichloropyridin-4-ylamino)-1-hydroxy-8,8-dimethyl-6,7,8,9-tetrahydro-3H-pyrazolo[3,4-c]isoquinolin-3-yl)methyl)benzoic acid] | 2.4 nM
5 | CC1(C)CCc2c(Nc3c(Cl)cncc3Cl)nc3c(c(O)nn3Cc3ccc(C(N)=O)cc3)c2C1 [Example 14, 4-((5-(3,5-Dichloropyridin-4-ylamino)-1-hydroxy-8,8-dimethyl-6,7,8,9-tetrahydro-3H-pyrazolo[3,4-c]isoquinolin-3-yl)methyl)benzamide] | 5.17 nM
6 | Cn1nc(O)c2c3c(c(Nc4c(Cl)cncc4Cl)nc21)CCC(C)(C)C3 [Example 5, 5-(3,5-Dichloropyridin-4-ylamino)-3,8,8-trimethyl-6,7,8,9-tetrahydro-3H-pyrazolo[3,4-c]isoquinolin-1-ol] | 17.1 nM
7 | COc1cccc(Cn2nc(O)c3c4c(c(Nc5c(Cl)cncc5Cl)nc32)CCC(C)(C)C4)c1 [Example 4, 5-(3,5-Dichloropyridin-4-ylamino)-3-(3-methoxybenzyl)-8,8-dimethyl-6,7,8,9-tetrahydro-3H-pyrazolo[3,4-c]isoquinolin-1-ol] | 11 nM
8 | CC1(C)CCc2c(Nc3c(Cl)cncc3Cl)nc3c(c(O)nn3Cc3cccc(C#N)c3)c2C1 [Example 13, 3-((5-(3,5-Dichloropyridin-4-ylamino)-1-hydroxy-8,8-dimethyl-6,7,8,9-tetrahydro-3H-pyrazolo[3,4-c]isoquinolin-3-yl)methyl)benzonitrile] | 2.35 nM
9 | CC1(C)CCc2c(Nc3c(Cl)cncc3Cl)nc3[nH]nc(N)c3c2C1 [Example 2, N^5-(3,5-Dichloropyridin-4-yl)-8,8-dimethyl-6,7,8,9-tetrahydro-3H-pyrazolo[3,4-c]isoquinoline-1,5-diamine] | 62 nM
10 | CC1(C)CCc2c(Nc3c(Cl)cncc3Cl)nc3c(c(O)nn3Cc3cccc(C(=O)O)c3)c2C1 [Example 7, 3-((5-(3,5-Dichloropyridin-4-ylamino)-1-hydroxy-8,8-dimethyl-6,7,8,9-tetrahydro-3H-pyrazolo[3,4-c]isoquinolin-3-yl)methyl)benzoic acid] | 3.1 nM

Other lines, results leading:

Row | IC50 | Molecule
11 | 2.1 nM | CC1(C)CCc2c(Nc3c(Cl)cncc3Cl)nc3c(c(O)nn3CCCc3cccc(C(N)=O)c3)c2C1 [Example 17, 3-(3-(5-(3,5-Dichloropyridin-4-ylamino)-1-hydroxy-8,8-dimethyl-6,7,8,9-tetrahydro-3H-pyrazolo[3,4-c]isoquinolin-3-yl)propyl)benzamide]
12 | 15.5 nM | CC1(C)CCc2c(Nc3c(Cl)cncc3Cl)nc3c(c(O)nn3CCCc3cccc(C#N)c3)c2C1 [Example 16, 3-(3-(5-(3,5-Dichloropyridin-4-ylamino)-1-hydroxy-8,8-dimethyl-6,7,8,9-tetrahydro-3H-pyrazolo[3,4-c]isoquinolin-3-yl)propyl)benzonitrile]
13 | 3.9 nM | CC1(C)CCc2c(Nc3c(Cl)cncc3Cl)nc3[nH]nc(O)c3c2C1 [Example 1, 5-(3,5-Dichloropyridin-4-ylamino)-8,8-dimethyl-6,7,8,9-tetrahydro-3H-pyrazolo[3,4-c]isoquinolin-1-ol]
14 | 16.8 nM | CN(C)C(=O)c1cccc(S(=O)(=O)n2nc(O)c3c4c(c(Nc5c(Cl)cncc5Cl)nc32)CCC(C)(C)C4)c1 [Example 3, 3-(5-(3,5-Dichloropyridin-4-ylamino)-1-hydroxy-8,8-dimethyl-6,7,8,9-tetrahydro-3H-pyrazolo[3,4-c]isoquinolin-3-ylsulfonyl)-N, N-dimethylbenzamide]
15 | 7.4 nM | CC1(C)CCc2c(Nc3c(Cl)cncc3Cl)nc3c(c(O)nn3Cc3cccnc3)c2C1 [Example 8, 5-(3,5-Dichloropyridin-4-ylamino)-8,8-dimethyl-3-(pyridin-3-ylmethyl)-6,7,8,9-tetrahydro-3H-pyrazolo[3,4-c]isoquinolin-1-ol]
16 | 2 nM | Methyl 3-((5-(3,5-dichloropyridin-4-ylamino)-1-hydroxy-8,8-dimethyl-6,7,8,9-tetrahydro-3H-pyrazolo[3,4-c]isoquinolin-3-yl)methyl)benzoate [Example 6]
